Patent US20190330529A1, “USE AND COMPOSITION OF BUFFER FORMULATION WITH MULTIPLE PH VALUES AND UREASE ACTIVITY INHIBITOR” (ECO-GEO BIO-TECHNOLOGY COMPANY LIMITED, priority 2018, published 2019)

Tests used:
[1] = target: T1, urease (U7752, Sigma-Aldrich) (Canavalia ensiformis, UniProt P07374); experiment: Inhibition of the activity of the urease in phosphate buffer solution (Berthelot, absorbance 625 nm); format: biochemical
T1 construct: purchased Sigma-Aldrich U7752
Method: 1. Experiment of the Inhibition of the Activity of the Urease (in Phosphate Buffer Solution, pH 5.0)
1.1 Control group: 20 μL of the buffer solution and 25 μL of 50 ppm urease (U7752, Sigma-Aldrich) were added and mixed in wells of a 96-well plate. After the mixture reacted at 37° C. for 5 minutes, 40 μL of 20 mM urea solution was added into the mixture. After the mixture reacted at 37° C. for 10 minutes, 55 μL of Berthelot reagent A (prepared by mixing 5 g of phenol and 25 mg of sodium nitroprusside and diluting the mixture to 500 mL with purified water) and 60 μL of Berthelot reagent B (prepared by mixing 2.5 g of sodium hydroxide and 4.2 mL of sodium hypochlorite and diluting the mixture to 500 mL with purified water) were added into each well. The mixture was held in the dark at 37° C. for 30 minutes, and the absorbance was measured at 625 nm wavelength by an enzyme-linked immuno-sorbent assay (ELISA) reader. Each sample was measured at least in triplicate.
(§1) 1.2 Ascorbic acid groups: 10 μL of the buffer solution, 10 μL of ascorbic acid solution and 25 μL of 50 ppm urease were added and mixed in wells of a 96-well plate. After the mixture reacted at 37° C. for 5 minutes, 40 μL of 20 mM urea solution was added into the mixture to make the final concentrations of the ascorbic acid as 120 ppm, 240 ppm and 480 ppm, respectively. After the mixture reacted at 37° C. for 10 minutes, 55 μL of Berthelot reagent A and 60 μL of Berthelot reagent B were added into each well. The mixture was held in the dark at 37° C. for 30 minutes, and the absorbance was measured at 625 nm wavelength by the ELISA reader. Each sample was measured at least in triplicate. The inhibition % of the activity of the urease=100−((the absorbance of the sample/the absorbance of the control group)×100).
2. Experiment of the Inhibition of the Activity of the Urease (in Phosphate Buffer Solution, pH 6.0)
(§2) 2.1 Control group: 20 μL of the buffer solution and 25 μL of 50 ppm urease were added and mixed in wells of a 96-well plate. After the mixture reacted at 37° C. for 5 minutes, 40 μL of 20 mM urea solution was added into the mixture. After the mixture reacted at 37° C. for 10 minutes, 55 μL of Berthelot reagent A and 60 μL of Berthelot reagent B were added into each well. The mixture was held in the dark at 37° C. for 30 minutes, and the absorbance was measured at 625 nm wavelength by the ELISA reader. Each sample was measured at least in triplicate.
as §1, with “2.2” for “1.2”
3. Experiment of the Inhibition of the Activity of the Urease (in Phosphate Buffer Solution, pH 6.8)
as §2, with “3.1” for “2.1”, “triplicate. […]” for “triplicate.”

[2] = target: T1, urease (U7752, Sigma-Aldrich); experiment: Inhibition of the activity of the urease in citric acid salt buffer solution (Berthelot, absorbance 625 nm); format: biochemical
Method: as §2, with “7.1 Control group:” for “2.1”
as §1, with “7.2” for “1.2”
as §2, with “8.1 Control group:” for “2.1”
as §1, with “8.2” for “1.2”
as §2, with “9.1 Control group:” for “2.1”
as §1, with “9.2” for “1.2”, “Each sample was measured at least in triplicate. The inhibition % of the activity of the urease=100−((the absorbance of the sample/the absorbance of the control group)×100).” left out

[3] = pH 5, read-out: inhibition % of the activity of the urease
[4] = pH 6, read-out: inhibition % of the activity of the urease
[5] = pH 6.8, read-out: inhibition % of the activity of the urease
[6] = pH 7, read-out: inhibition % of the activity of the urease
[7] = pH 7.3, read-out: inhibition % of the activity of the urease
[8] = pH 8, read-out: inhibition % of the activity of the urease

T1 sequence (P07374 whole entry, looked up): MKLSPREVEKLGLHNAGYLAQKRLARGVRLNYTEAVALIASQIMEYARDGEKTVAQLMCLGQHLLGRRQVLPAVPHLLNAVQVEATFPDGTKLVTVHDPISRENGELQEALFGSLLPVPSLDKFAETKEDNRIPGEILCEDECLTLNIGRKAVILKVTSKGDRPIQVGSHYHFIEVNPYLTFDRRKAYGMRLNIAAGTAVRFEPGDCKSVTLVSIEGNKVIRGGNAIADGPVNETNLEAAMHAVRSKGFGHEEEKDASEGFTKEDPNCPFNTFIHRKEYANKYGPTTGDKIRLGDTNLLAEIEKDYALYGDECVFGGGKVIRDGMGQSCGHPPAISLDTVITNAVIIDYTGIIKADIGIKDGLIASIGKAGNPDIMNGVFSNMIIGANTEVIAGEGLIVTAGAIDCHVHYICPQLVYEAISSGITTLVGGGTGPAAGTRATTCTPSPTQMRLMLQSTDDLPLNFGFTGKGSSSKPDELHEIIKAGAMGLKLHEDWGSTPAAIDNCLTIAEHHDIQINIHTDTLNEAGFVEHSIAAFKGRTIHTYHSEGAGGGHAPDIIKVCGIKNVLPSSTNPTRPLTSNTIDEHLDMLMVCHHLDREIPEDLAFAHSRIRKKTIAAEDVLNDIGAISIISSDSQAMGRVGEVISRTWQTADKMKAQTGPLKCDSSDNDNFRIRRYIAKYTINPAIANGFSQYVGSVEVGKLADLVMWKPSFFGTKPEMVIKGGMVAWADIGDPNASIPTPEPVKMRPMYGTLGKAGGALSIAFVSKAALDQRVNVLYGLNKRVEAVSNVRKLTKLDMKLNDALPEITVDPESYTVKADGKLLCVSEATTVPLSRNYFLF

Question: For `O=C1O[C@H]([C@@H](O)CO)C(O)=C1O` [ascorbic acid], which “inhibitory effect on the urease hydrolysis (in words)” value ([1]; environment with pH 5-8, optical density versus control group) is on record?
Answer: has the inhibitory effect on the urease hydrolysis

Question: What about the “inhibitory effect on the urease hydrolysis” value ([1]; environment with pH 6.8-7.3, summary statement, buffer and concentration not stated) of the same compound?
Answer: over 90%

Question: What about the inhibition at 120 ppm [1, 3] of the same compound?
Answer: 25.7%

Question: What about the inhibition at 240 ppm [1, 3] of the same compound?
Answer: 33.1%

Question: What about the inhibition at 480 ppm [1, 3] of the same compound?
Answer: 40.5%

Question: And the inhibition at 120 ppm [1, 4]?
Answer: 26.7%

Question: And the inhibition at 240 ppm [1, 4]?
Answer: 49%

Question: What about the inhibition at 480 ppm [1, 4] of the same compound?
Answer: 52.9%

Question: And the inhibition at 480 ppm ([1]; pH 6, read-out: inhibition of the urea hydrolysis)?
Answer: > 50%

Question: What about the inhibition at 120 ppm [1, 5] of the same compound?
Answer: 2%

Question: What about the inhibition at 240 ppm [1, 5] of the same compound?
Answer: 37.3%

Question: What about the inhibition at 480 ppm [1, 5] of the same compound?
Answer: 96.5%

Question: What about the inhibition at 480 ppm ([1]; pH 6.8, read-out: inhibition of the urea hydrolysis) of the same compound?
Answer: > 93%

Question: And the inhibition at 120 ppm [1, 6]?
Answer: 16.1%

Question: And the inhibition at 240 ppm [1, 6]?
Answer: 59.4%

Question: What about the inhibition at 480 ppm [1, 6] of the same compound?
Answer: 97.2%

Question: And the inhibition at 120 ppm [1, 7]?
Answer: 11.3%

Question: And the inhibition at 240 ppm [1, 7]?
Answer: 34.6%

Question: And the inhibition at 480 ppm [1, 7]?
Answer: 93.6%

Question: And the inhibition at 120 ppm [1, 8]?
Answer: 8.1%

Question: What about the inhibition at 240 ppm [1, 8] of the same compound?
Answer: 33.3%

Question: What about the inhibition at 480 ppm [1, 8] of the same compound?
Answer: 77.7%

Question: And the inhibition at 120 ppm ([2]; pH 6.8, read-out: inhibition % of the activity of the urease, 120 ppm ascorbic acid, citrate buffer solution, pH 6.8)?
Answer: -6.8%

Question: What about the inhibition at 240 ppm ([2]; pH 6.8, read-out: inhibition % of the activity of the urease, 240 ppm ascorbic acid, citrate buffer solution, pH 6.8) of the same compound?
Answer: 66%

Question: What about the inhibition at 480 ppm ([2]; pH 6.8, read-out: inhibition % of the activity of the urease, 480 ppm ascorbic acid, citrate buffer solution, pH 6.8) of the same compound?
Answer: 93.5%

Question: What about the inhibition at 480 ppm ([2]; pH 6.8, read-out: inhibition of the urea hydrolysis, 480 ppm ascorbic acid, citrate buffer solution, pH 6.8-7.0) of the same compound?
Answer: > 90%

Question: What about the inhibition at 480 ppm ([2]; pH 6.8, read-out: inhibition of the urea hydrolysis, 480 ppm ascorbic acid, citrate buffer solution, pH 6.8-7.3) of the same compound?
Answer: > 50%

Question: What about the inhibition at 120 ppm ([2]; pH 7, read-out: inhibition % of the activity of the urease, 120 ppm ascorbic acid, citrate buffer solution, pH 7.0) of the same compound?
Answer: -25.2%

Question: What about the inhibition at 240 ppm ([2]; pH 7, read-out: inhibition % of the activity of the urease, 240 ppm ascorbic acid, citrate buffer solution, pH 7.0) of the same compound?
Answer: 32.6%

Question: What about the inhibition at 480 ppm ([2]; pH 7, read-out: inhibition % of the activity of the urease, 480 ppm ascorbic acid, citrate buffer solution, pH 7.0) of the same compound?
Answer: 93.6%

Question: And the inhibition at 120 ppm ([2]; pH 7.3, read-out: inhibition % of the activity of the urease, 120 ppm ascorbic acid, citrate buffer solution, pH 7.3)?
Answer: -19.7%

Question: And the inhibition at 240 ppm ([2]; pH 7.3, read-out: inhibition % of the activity of the urease, 240 ppm ascorbic acid, citrate buffer solution, pH 7.3)?
Answer: 27.1%

Question: And the inhibition at 480 ppm ([2]; pH 7.3, read-out: inhibition % of the activity of the urease, 480 ppm ascorbic acid, citrate buffer solution, pH 7.3)?
Answer: 75.3%
